Measured values from article PMC12406200, “Structural Basis of PPARγ-Mediated Transcriptional Repression by the Covalent Inverse Agonist FX-909” (Journal of Medicinal Chemistry, 2025).

Assays:
[1] = biological target: T1, full-length human PPARγ (isoform 2) (Homo sapiens, UniProt P37231); experiment: Transcriptional reporter assay (3xPPRE-luciferase) in HEK293T cells transfected with full-length PPARγ; assay type: cell-based; details: for IC50: full-length PPARγ + 3xPPRE-luciferase, 18 h treatment, n = 4, three-parameter fit, read-out: cellular IC50 (decrease in PPARγ-mediated transcription)
T1 construct: full-length human PPARγ (isoform 2) expression plasmid; expressed in transfected cells; host or cells: HEK293T (ATCC #CRL-11268)
T1 sequence (P37231 1-505): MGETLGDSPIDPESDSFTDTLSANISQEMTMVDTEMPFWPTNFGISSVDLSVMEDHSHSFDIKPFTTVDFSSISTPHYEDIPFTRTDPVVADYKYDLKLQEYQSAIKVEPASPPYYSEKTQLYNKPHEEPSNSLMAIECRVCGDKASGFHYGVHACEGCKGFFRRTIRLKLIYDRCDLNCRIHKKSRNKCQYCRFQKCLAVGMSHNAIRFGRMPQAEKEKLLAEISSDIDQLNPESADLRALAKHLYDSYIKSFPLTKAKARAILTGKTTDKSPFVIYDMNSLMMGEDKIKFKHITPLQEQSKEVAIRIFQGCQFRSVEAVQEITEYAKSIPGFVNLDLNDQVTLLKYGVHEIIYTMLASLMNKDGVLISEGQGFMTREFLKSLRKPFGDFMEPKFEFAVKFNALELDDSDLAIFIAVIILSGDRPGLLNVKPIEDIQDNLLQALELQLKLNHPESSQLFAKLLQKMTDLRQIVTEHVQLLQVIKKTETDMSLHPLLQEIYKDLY
Protocol: 1 Pharmacological PPARγ ligand set used in this study. (A) Chemical structures and pharmacological properties of the ligands. […] (B) Transcriptional reporter assay performed in HEK293T cells transfected with a full-length PPARγ expression plasmid and a 3xPPRE-luciferase reporter plasmid. Data were normalized to cells treated with DMSO control, represented as mean ± s.d.
After an 18 h incubation, cells were transferred to white 384-well cell culture plates (Thermo Fisher Scientific) at 10,000 cells/well in 20 μL total volume/well. After a 4 h incubation, cells were treated in quadruplicate with 20 μL of either vehicle control (1.5% DMSO in DMEM) or a 3-fold serial dilution of ligands (1 μM highest ligand concentration). After a final 18 h incubation, cells were harvested with 20 μL of Britelite Plus (PerkinElmer), and luminescence was measured on a BioTek Synergy Neo multimode plate reader. Data were plotted in GraphPad Prism as luminescence vs ligand concentration as mean ± s.d. (n = 4) and fit to a three-parameter sigmoidal dose–response curve equation.

[2] = biological target: T2, PPARγ LBD / NCoR1 corepressor peptide (Homo sapiens, UniProt P37231); experiment: TR-FRET coregulator interaction assay, NCoR1 corepressor peptide; assay type: biochemical; details: for EC50: 4 nM 6xHis-PPARγ LBD, 400 nM FITC-NCoR1 peptide, 1 h at 25 °C, n = 3, read-out: NCoR1 TR-FRET EC50 (increase in NCoR1 peptide interaction)
T2 construct: residues 203–477 (isoform 1 numbering) with a TEV-cleavable N-terminal hexa-his-tag; made in house; host or cells: Escherichia coli BL21(DE3), pET46 plasmid
T2 sequence (P37231 203-477 isoform P37231-2): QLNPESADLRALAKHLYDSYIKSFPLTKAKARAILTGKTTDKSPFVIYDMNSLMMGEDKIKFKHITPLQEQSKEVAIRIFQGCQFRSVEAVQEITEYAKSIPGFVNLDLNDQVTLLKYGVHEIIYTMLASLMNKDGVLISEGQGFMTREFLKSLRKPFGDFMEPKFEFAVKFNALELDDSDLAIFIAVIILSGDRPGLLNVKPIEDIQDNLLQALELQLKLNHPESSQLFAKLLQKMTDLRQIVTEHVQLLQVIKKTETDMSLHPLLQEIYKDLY
Excerpt: (§1) We next characterized the ligand set using biochemical assays that report on ligand-dependent changes in the interaction between PPARγ LBD and FITC-labeled peptides derived from NR coregulator proteins that contribute to PPARγ-mediated transcription in cells, including the TRAP220/MED1 coactivator and NCoR1 corepressor. We used time-resolved fluorescence resonance energy transfer (TR-FRET) assays to determine relative ligand potency (or covalent reactivity) and efficacy (via increased or decreased TR-FRET ratio values). […] We performed fluorescence polarization (FP) assays to directly measure binding affinities between the PPARγ LBD and coregulator peptides.
(§2) 2 Biochemical coregulator profiling data. Time-resolved fluorescence resonance energy transfer (TR-FRET) coregulator interaction assay performed with (A) the NCoR1 corepressor peptide or (B) the TRAP220/MED1 coactivator peptide in the presence of the indicated ligands. Data represent mean ± s.e.m. […] Fluorescence polarization (FP) binding assay performed with (C) NCoR1 corepressor peptide or (D) TRAP220/MED1 coactivator peptide in the presence of the indicated ligands. Data represent mean ± s.e.m. […] (E) Pairwise correlation plots between PPARγ-mediated transcription (y-axis) and biochemical coregulator profiling data (x-axis). Spearman correlation coefficients (r p) and associated two-tailed p values are listed.
(§3) Time-resolved fluorescence resonance energy transfer (TR-FRET) coregulator peptide interaction assays were performed in low-volume black 384-well plates (Greiner) using a 23 μL final well volume. Each well contained 4 nM protein (WT or mutant 6xHis-PPARγ LBD), 1 nM LanthaScreen Elite Tb-anti-His Antibody (ThermoFisher #PV5895), and 400 nM FITC-labeled TRAP220/MED1 and NCoR1 peptide in a buffer containing 20 mM potassium phosphate (pH 7.4), 50 mM KCl, 5 mM TCEP, and 0.005% Tween 20. Ligand stocks were prepared via serial dilution in DMSO, added to wells in triplicate (10 μM highest final ligand concentration), and plates were read using BioTek Synergy Neo multimode plate reader after incubation for 1 h at 25 °C.

[3] = biological target: T3, PPARγ LBD / TRAP220/MED1 coactivator peptide (Homo sapiens, UniProt P37231); experiment: TR-FRET coregulator interaction assay, TRAP220/MED1 coactivator peptide; assay type: biochemical; details: for IC50: 4 nM 6xHis-PPARγ LBD, 400 nM FITC-TRAP220/MED1 peptide, 1 h at 25 °C, n = 3, read-out: MED1 TR-FRET IC50 (decrease in TRAP220/MED1 peptide interaction)
T3 construct: residues 203–477 (isoform 1 numbering) with a TEV-cleavable N-terminal hexa-his-tag; made in house; host or cells: Escherichia coli BL21(DE3), pET46 plasmid
T3 sequence (P37231 203-477 isoform P37231-2): T2 sequence (P37231 203-477 isoform P37231-2)
Excerpt: as §1, §2, §3

Row | IC50 [1] [nM] | EC50 [2] [nM] | IC50 [3] [nM] | effect on PPARγ-mediated transcription (in words) ([1]; 3xPPRE-luciferase reporter) | effect on NCoR1 corepressor peptide interaction, TR-FRET efficacy (in words) ([2]; TR-FRET ratio) | effect on TRAP220/MED1 coactivator peptide interaction, TR-FRET efficacy (in words) ([3]; TR-FRET ratio) | SMILES
1 | 1.31 | 33 | 16 | – | – | – | CS(=O)(=O)c1ccc(C#N)cc1-c1cc(=O)c2c(F)cc(F)cc2[nH]1 [FX-909, 3-(5,7-difluoro-4-oxo-1,4-dihydroquinolin-2-yl)-4-(methylsulfonyl)benzonitrile]
2 | – | 17 | – | no change in activity | relatively little change in efficacy | relatively little change in efficacy | O=C(Nc1ccccc1)c1cc([N+](=O)[O-])ccc1Cl [GW9662]
3 | 1.58 | 17 | 5 | – | – | – | N#Cc1ccc(NC(=O)c2cc([N+](=O)[O-])ccc2Cl)cn1 [SR33068]
